Measurements: patent US8063208B2, “Crystalline forms of (3R,4R)-4-amino-1-[[4-[(3-methoxyphenyl)amino]pyrrolo[2,1-f][1,2,4]triazin-5-yl]methyl]piperidin-3-ol” (Bristol-Myers Squibb Company, priority 2006, dated 2011)

How the values were obtained:
HER1 = HER1 (Homo sapiens, UniProt P00533); assay: HER1 tyrosine kinase inhibition; format: biochemical
HER2 = HER2 (Homo sapiens, UniProt P04626); assay: HER2 tyrosine kinase inhibition; format: biochemical
HER4 = HER4 (Homo sapiens, UniProt Q15303); assay: HER4 tyrosine kinase inhibition; format: biochemical
HER4, sequence (Q15303 26-1308): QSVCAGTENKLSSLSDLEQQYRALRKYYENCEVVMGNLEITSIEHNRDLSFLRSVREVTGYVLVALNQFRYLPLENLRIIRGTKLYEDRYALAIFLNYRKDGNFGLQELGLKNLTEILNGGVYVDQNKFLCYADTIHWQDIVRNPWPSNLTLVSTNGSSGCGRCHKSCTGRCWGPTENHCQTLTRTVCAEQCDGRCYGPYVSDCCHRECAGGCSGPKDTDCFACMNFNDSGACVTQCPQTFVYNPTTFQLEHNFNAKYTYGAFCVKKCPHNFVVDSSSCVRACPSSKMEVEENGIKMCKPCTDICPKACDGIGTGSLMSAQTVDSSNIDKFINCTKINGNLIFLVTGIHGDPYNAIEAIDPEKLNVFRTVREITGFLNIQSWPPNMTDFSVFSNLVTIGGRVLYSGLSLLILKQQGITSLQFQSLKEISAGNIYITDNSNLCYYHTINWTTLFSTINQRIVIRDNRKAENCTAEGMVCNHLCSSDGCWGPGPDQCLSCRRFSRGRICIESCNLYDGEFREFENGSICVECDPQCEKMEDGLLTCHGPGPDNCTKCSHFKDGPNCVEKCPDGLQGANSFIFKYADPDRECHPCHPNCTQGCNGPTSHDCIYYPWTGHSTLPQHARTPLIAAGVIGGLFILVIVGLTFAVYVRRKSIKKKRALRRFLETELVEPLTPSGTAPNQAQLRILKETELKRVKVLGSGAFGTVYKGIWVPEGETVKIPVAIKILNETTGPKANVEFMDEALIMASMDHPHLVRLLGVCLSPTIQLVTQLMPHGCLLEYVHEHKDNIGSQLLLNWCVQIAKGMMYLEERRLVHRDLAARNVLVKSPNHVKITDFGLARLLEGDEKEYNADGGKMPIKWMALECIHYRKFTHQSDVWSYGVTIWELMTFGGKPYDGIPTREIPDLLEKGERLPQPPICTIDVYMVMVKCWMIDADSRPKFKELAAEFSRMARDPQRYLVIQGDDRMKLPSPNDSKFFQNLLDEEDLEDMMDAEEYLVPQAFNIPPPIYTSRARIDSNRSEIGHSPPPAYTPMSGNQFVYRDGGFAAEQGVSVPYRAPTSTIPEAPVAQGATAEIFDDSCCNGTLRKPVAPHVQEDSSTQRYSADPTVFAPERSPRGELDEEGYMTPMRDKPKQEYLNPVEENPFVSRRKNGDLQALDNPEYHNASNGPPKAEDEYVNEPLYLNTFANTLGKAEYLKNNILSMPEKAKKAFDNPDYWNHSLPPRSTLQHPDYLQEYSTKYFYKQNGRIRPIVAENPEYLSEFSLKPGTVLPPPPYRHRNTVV

VEGFR2 = VEGFR2 (Homo sapiens, UniProt P35968); assay: VEGFR2 inhibition; format: biochemical
VEGFR2, sequence (P35968 20-1356, species assumed): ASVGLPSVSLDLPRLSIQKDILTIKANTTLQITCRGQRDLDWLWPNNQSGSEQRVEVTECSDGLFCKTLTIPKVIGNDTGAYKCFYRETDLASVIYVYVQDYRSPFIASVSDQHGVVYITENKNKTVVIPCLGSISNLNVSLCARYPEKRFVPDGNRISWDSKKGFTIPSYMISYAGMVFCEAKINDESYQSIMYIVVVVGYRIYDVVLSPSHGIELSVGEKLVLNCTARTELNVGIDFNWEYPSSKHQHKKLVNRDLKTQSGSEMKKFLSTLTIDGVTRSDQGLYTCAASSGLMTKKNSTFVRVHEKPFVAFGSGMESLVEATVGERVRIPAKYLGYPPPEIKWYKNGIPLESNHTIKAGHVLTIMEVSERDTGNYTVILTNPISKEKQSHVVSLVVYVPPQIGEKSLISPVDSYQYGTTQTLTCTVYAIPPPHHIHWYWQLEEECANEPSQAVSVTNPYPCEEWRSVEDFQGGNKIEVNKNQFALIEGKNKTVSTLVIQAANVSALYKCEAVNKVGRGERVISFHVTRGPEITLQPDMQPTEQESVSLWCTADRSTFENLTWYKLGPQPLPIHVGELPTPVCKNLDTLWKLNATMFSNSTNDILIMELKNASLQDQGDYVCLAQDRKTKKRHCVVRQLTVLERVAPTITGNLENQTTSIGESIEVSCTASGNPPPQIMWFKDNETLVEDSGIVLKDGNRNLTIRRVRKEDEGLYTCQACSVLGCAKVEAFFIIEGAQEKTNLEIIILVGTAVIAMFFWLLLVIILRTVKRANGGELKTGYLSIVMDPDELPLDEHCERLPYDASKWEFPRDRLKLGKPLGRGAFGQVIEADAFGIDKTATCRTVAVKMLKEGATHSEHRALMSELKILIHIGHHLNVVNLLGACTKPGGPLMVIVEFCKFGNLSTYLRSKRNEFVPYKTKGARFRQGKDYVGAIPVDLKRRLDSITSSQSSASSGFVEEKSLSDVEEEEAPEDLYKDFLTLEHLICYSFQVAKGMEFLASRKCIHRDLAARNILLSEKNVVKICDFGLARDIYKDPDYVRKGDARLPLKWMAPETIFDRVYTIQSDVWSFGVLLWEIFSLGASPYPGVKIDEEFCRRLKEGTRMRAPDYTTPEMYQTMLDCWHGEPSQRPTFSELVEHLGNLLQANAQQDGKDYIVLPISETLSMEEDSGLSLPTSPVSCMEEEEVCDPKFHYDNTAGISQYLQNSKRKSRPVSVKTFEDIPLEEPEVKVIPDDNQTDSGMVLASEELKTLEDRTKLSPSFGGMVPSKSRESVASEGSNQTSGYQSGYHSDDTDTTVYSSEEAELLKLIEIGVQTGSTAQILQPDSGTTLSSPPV

various tumor cell lines = assay: Antiproliferative activity in tumor cell lines; format: cell-based
[1] = test system: HER2 and HER1 driven tumor xenograft models; assay: Anti-tumor efficacy in tumor xenograft models; format: in vivo
[2] = Form conversion on heating (melt/recrystallization); format: physicochemical; conditions: melts at about 137° C.
Method: Differential scanning calorimetry (DSC) experiments were performed in a TA Instruments™ model Q1000 or 2920. The sample (about 2-6 mg) was weighed in an aluminum pan and recorded accurately recorded to a hundredth of a milligram, and transferred to the DSC. The instrument was purged with nitrogen gas at 50 mL/min. Data were collected between room temperature and 300° C. at 10° C./min heating rate. The plot was made with the endothermic peaks pointing down.

[3] = Relative thermodynamic stability of crystalline forms; format: physicochemical; conditions: temperatures from room temperature to 50° C.
[4] = Slurry conversion of mixtures of forms; format: physicochemical; conditions: slurried mixtures of N-1 and N-2 convert to Form N-2

HER2, sequence (P04626 23-1255): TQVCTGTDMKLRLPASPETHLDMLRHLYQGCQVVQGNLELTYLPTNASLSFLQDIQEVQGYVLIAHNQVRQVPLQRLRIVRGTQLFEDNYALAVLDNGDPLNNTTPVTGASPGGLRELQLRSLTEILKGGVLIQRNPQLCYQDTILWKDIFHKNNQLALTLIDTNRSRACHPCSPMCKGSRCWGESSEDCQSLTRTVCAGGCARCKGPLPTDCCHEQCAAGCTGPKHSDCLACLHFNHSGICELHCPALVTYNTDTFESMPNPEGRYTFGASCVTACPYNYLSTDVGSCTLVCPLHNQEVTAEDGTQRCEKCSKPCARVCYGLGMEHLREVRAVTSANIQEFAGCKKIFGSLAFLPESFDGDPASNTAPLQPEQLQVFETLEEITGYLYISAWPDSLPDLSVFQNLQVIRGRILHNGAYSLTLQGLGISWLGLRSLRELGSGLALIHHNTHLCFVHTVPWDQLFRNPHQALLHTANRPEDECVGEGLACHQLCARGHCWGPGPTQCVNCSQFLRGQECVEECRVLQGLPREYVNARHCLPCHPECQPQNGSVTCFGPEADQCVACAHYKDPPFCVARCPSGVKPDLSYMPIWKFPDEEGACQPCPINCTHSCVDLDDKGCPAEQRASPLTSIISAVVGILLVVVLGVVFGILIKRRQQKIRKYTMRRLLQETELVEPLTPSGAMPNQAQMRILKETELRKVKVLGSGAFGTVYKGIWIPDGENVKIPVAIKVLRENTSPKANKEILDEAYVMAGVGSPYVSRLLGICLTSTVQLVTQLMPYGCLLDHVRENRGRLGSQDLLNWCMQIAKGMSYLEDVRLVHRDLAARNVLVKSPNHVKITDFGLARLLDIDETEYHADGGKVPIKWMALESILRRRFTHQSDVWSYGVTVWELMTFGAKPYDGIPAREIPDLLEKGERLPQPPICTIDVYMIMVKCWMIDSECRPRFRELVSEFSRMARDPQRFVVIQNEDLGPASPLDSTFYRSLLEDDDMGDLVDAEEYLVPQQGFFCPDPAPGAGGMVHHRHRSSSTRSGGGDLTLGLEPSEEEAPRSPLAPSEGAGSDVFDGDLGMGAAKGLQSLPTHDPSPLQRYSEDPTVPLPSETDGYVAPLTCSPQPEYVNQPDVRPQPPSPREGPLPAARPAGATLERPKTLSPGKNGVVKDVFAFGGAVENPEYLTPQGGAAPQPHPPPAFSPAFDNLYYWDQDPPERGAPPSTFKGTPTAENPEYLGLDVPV
HER1, sequence (P00533 25-1210): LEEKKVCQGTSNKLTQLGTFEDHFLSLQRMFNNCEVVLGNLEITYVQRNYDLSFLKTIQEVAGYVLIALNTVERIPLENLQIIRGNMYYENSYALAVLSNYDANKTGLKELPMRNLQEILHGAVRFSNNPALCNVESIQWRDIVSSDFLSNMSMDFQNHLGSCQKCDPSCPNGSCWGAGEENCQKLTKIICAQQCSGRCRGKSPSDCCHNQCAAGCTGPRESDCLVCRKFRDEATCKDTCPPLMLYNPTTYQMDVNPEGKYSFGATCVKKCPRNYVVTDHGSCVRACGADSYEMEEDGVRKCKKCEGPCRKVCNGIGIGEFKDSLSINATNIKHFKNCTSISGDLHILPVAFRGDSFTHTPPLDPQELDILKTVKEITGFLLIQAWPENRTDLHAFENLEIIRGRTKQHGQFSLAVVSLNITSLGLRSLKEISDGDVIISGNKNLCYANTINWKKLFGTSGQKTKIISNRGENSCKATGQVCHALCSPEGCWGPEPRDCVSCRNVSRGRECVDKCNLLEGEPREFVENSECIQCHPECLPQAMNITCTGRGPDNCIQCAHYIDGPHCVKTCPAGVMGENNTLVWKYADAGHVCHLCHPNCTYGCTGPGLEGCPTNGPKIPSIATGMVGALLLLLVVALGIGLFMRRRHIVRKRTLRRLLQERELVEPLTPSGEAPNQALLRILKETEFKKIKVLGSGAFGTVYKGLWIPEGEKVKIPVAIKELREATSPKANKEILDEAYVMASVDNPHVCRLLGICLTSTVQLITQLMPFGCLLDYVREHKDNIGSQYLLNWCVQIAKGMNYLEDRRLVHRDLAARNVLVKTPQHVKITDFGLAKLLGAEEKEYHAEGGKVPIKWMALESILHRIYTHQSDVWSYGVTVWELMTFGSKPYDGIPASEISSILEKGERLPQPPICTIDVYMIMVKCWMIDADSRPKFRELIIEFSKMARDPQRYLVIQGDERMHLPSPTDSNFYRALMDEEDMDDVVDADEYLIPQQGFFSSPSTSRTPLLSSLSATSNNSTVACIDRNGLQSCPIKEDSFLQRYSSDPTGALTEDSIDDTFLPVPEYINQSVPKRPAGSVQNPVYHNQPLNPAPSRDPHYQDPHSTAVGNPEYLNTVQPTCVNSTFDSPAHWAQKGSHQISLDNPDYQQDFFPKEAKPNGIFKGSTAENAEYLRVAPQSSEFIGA

COc1cccc(Nc2ncnn3ccc(CN4CC[C@@H](N)[C@H](O)C4)c23)c1 [Compound I, (3R,4R)-4-amino-1-[[4-[(3-methoxyphenyl)amino]pyrrolo[2,1-f][1,2,4]triazin-5-yl]methyl]piperidin-3-ol]
inhibition of HER1 (HER1): potent inhibitor
inhibition of HER2 (HER2): potent inhibitor
inhibition of HER4 (HER4): potent inhibitor
inhibition of VEGFR2 (VEGFR2): potent inhibitor
antiproliferative activity (various tumor cell lines): broad antiproliferative activity
anti-tumor efficacy [1]: excellent anti-tumor efficacy

COc1cccc(Nc2ncnn3ccc(CN4CC[C@@H](N)[C@H](O)C4)c23)c1 [Form N-1, (3R,4R)-4-amino-1-[[4-[(3-methoxyphenyl)amino]pyrrolo[2,1-f][1,2,4]triazin-5-yl]methyl]piperidin-3-ol]
solid form conversion after melting [2]: recrystallizes as Form N-2

COc1cccc(Nc2ncnn3ccc(CN4CC[C@@H](N)[C@H](O)C4)c23)c1 [Form N-2, (3R,4R)-4-amino-1-[[4-[(3-methoxyphenyl)amino]pyrrolo[2,1-f][1,2,4]triazin-5-yl]methyl]piperidin-3-ol]
thermodynamic stability relative to other form [3]: more thermodynamically stable than Form N-1
stability relationship from slurried mixtures of N-1 and N-2 [4]: monotropically more stable
